Source: US6914045B2, “Glycopeptide antibiotics” (Wyeth Holdings Corporation, priority 2001, dated 2005)
Values after ≈ are worked out from the molar mass of the structure shown.

Experiments:
Assay in all cases: in vitro antibacterial evaluation, MIC by broth dilution
Format in all cases: cell-based
[1] = test system: Enterococcus sp.; conditions: broth dilution, 18 hours at 35° C.
Method in brief: (§1)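 MIC = lowest antibiotic concentration preventing visible growth; inoculum 5×10^5 CFU/mL; drug range 64-0.06 μg/mL; Muller-Hinton II […]; NCCLS M7-A2 guidance.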

[2] = test system: Staphylococcus sp.; conditions: broth dilution, 18 hours at 35° C.
Method in brief: as §1

[3] = test system: Escherichia coli; conditions: 18 hours at 35° C., strain ATCC 25922
Method in brief: as §1

[4] = test system: Streptococcus sp.; conditions: broth dilution, 18 hours at 35° C.
Method in brief: as §1

MIC Enterococcus avium (GC 4558) ([1]; Enterococcus avium (GC 4558)): 16 µg/mL (≈ 11.2 µM)
MIC Enterococcus faecalis (ATCC 29212) ([1]; Enterococcus faecalis (ATCC 29212)): 16 µg/mL (≈ 11.2 µM)
MIC Enterococcus faecalis (GC 2242) ([1]; Enterococcus faecalis (GC 2242)): 8 µg/mL (≈ 5.6 µM)
MIC Enterococcus faecalis (GC 4552) ([1]; Enterococcus faecalis (GC 4552)): 16 µg/mL (≈ 11.2 µM)
MIC Enterococcus faecalis (GC 4553) ([1]; Enterococcus faecalis (GC 4553)): 16 µg/mL (≈ 11.2 µM)
MIC Enterococcus faecalis (GC 4554) ([1]; Enterococcus faecalis (GC 4554)): 16 µg/mL (≈ 11.2 µM)
MIC Enterococcus faecium (GC 2243) ([1]; Enterococcus faecium (GC 2243)): 16 µg/mL (≈ 11.2 µM)
MIC Enterococcus faecium (GC 4556) ([1]; Enterococcus faecium (GC 4556)): 16 µg/mL (≈ 11.2 µM)
MIC Enterococcus faecium (GC 4557) ([1]; Enterococcus faecium (GC 4557)): 2 µg/mL (≈ 1.4 µM)
MIC Enterococcus faecalis (ATCC 29212) ([1]; strain ATCC 29212): 16 µg/mL (≈ 11.2 µM)
MIC Enterococcus faecalis (GC 2242) ([1]; strain GC 2242): 8 µg/mL (≈ 5.6 µM)
MIC Enterococcus faecium (GC 2243) ([1]; strain GC 2243): 16 µg/mL (≈ 11.2 µM)
MIC Enterococcus faecalis (GC 4552) ([1]; strain GC 4552): 16 µg/mL (≈ 11.2 µM)
MIC Enterococcus faecalis (GC 4553) ([1]; strain GC 4553): 16 µg/mL (≈ 11.2 µM)
MIC Enterococcus faecalis (GC 4554) ([1]; strain GC 4554): 16 µg/mL (≈ 11.2 µM)
MIC Enterococcus faecium (GC 4556) ([1]; strain GC 4556): 16 µg/mL (≈ 11.2 µM)
MIC Enterococcus faecium (GC 4557) ([1]; strain GC 4557): 2 µg/mL (≈ 1.4 µM)
MIC Enterococcus avium (GC 4558) ([1]; strain GC 4558): 16 µg/mL (≈ 11.2 µM)
MIC Coagulase Negative Staphylococcus (GC 4547) [2]: 1 µg/mL (≈ 0.7 µM)
MIC Coagulase Negative Staphylococcus (GC 4548) [2]: 1 µg/mL (≈ 0.7 µM)
MIC Coagulase Negative Staphylococcus (GC 4549) [2]: 1 µg/mL (≈ 0.7 µM)
MIC Coagulase Negative Staphylococcus (GC 4551) [2]: 2 µg/mL (≈ 1.4 µM)
MIC Coagulase Negative Staphylococcus (ID-3941) [2]: 1 µg/mL (≈ 0.7 µM)
MIC Staphylococcus aureus (ATCC 29213) [2]: 2 µg/mL (≈ 1.4 µM)
MIC Staphylococcus aureus (GC 1131) [2]: 4 µg/mL (≈ 2.8 µM)
MIC Staphylococcus aureus (GC 4541) [2]: 2 µg/mL (≈ 1.4 µM)
MIC Staphylococcus aureus (GC 4542) [2]: 4 µg/mL (≈ 2.8 µM)
MIC Staphylococcus aureus (GC 4544) [2]: 4 µg/mL (≈ 2.8 µM)
MIC Staphylococcus aureus (GC 4545) [2]: 4 µg/mL (≈ 2.8 µM)
MIC Staphylococcus aureus-SMITH (GC 4543) [2]: 8 µg/mL (≈ 5.6 µM)
MIC Coagulase Negative Staphylococcus (GC 4547) ([2]; strain GC 4547): 1 µg/mL (≈ 0.7 µM)
MIC Coagulase Negative Staphylococcus (GC 4548) ([2]; strain GC 4548): 1 µg/mL (≈ 0.7 µM)
MIC Coagulase Negative Staphylococcus (GC 4549) ([2]; strain GC 4549): 1 µg/mL (≈ 0.7 µM)
MIC Coagulase Negative Staphylococcus (GC 4551) ([2]; strain GC 4551): 2 µg/mL (≈ 1.4 µM)
MIC Coagulase Negative Staphylococcus (ID-3941) ([2]; strain ID-3941): 1 µg/mL (≈ 0.7 µM)
MIC Staphylococcus aureus-SMITH (GC 4543) ([2]; strain SMITH GC 4543): 8 µg/mL (≈ 5.6 µM)
MIC Staphylococcus aureus (ATCC 29213) ([2]; strain ATCC 29213): 2 µg/mL (≈ 1.4 µM)
MIC Staphylococcus aureus (GC 1131) ([2]; strain GC 1131): 4 µg/mL (≈ 2.8 µM)
MIC Staphylococcus aureus (GC 4541) ([2]; strain GC 4541): 2 µg/mL (≈ 1.4 µM)
MIC Staphylococcus aureus (GC 4542) ([2]; strain GC 4542): 4 µg/mL (≈ 2.8 µM)
MIC Staphylococcus aureus (GC 4544) ([2]; strain GC 4544): 4 µg/mL (≈ 2.8 µM)
MIC Staphylococcus aureus (GC 4545) ([2]; strain GC 4545): 4 µg/mL (≈ 2.8 µM)
MIC Escherichia coli (ATCC 25922) [3]: 64 µg/mL (≈ 44.8 µM)
MIC Streptococcus agalactiae (GC 4564) ([4]; Streptococcus agalactiae (GC 4564)): 1 µg/mL (≈ 0.7 µM)
MIC Streptococcus pneumoniae (GC 4565) ([4]; Streptococcus pneumoniae (GC 4565)): <0.5 µg/mL
MIC Streptococcus pyogenes (ID-3187) ([4]; Streptococcus pyogenes (ID-3187)): 1 µg/mL (≈ 0.7 µM)
MIC Streptococcus agalactiae (GC 4564) ([4]; strain GC 4564): 1 µg/mL (≈ 0.7 µM)
MIC Streptococcus pneumoniae (GC 4565) ([4]; strain GC 4565): <0.5 µg/mL
MIC Streptococcus pyogenes (ID-3187) ([4]; strain ID-3187): 1 µg/mL (≈ 0.7 µM)
SMILES: CC(c1ccccc1)C1NC(=O)CNC(=O)C(CO)NC(=O)C(C(O)C2CNC(=N)N2C2OC(CO)C(O)C(O)C2O)NC(=O)C(C(O)C2CNC(=N)N2)NC(=O)C(Cc2ccc(OC3OC(CO)C(OC4OC(COC(=O)OCc5ccccc5)C(O)C(O)C4O)C(O)C3O)cc2)NC1=O (stereo not drawn) [Example 101a]
MIC Staphylococcus haemolyticus (GC 4546) [2]: 1 µg/mL (≈ 0.7 µM)
MIC Staphylococcus haemolyticus (GC 4546) ([2]; strain GC 4546): 1 µg/mL (≈ 0.7 µM)
